Consider 40 molecules from patent US20260356804A1, “SODIUM CHANNEL BLOCKING COMPOUNDS, DERIVATIVES THEREOF, AND METHODS OF THEIR USE” (LATIGO BIOTHERAPEUTICS, INC., priority 2022, published 2026).

For the first assay, the target named is T1, human Nav1.8/β1 (Homo sapiens, UniProt Q9Y5Y9).
T1 construct: host or cells: HEK293
T1 sequence (Q9Y5Y9 whole entry): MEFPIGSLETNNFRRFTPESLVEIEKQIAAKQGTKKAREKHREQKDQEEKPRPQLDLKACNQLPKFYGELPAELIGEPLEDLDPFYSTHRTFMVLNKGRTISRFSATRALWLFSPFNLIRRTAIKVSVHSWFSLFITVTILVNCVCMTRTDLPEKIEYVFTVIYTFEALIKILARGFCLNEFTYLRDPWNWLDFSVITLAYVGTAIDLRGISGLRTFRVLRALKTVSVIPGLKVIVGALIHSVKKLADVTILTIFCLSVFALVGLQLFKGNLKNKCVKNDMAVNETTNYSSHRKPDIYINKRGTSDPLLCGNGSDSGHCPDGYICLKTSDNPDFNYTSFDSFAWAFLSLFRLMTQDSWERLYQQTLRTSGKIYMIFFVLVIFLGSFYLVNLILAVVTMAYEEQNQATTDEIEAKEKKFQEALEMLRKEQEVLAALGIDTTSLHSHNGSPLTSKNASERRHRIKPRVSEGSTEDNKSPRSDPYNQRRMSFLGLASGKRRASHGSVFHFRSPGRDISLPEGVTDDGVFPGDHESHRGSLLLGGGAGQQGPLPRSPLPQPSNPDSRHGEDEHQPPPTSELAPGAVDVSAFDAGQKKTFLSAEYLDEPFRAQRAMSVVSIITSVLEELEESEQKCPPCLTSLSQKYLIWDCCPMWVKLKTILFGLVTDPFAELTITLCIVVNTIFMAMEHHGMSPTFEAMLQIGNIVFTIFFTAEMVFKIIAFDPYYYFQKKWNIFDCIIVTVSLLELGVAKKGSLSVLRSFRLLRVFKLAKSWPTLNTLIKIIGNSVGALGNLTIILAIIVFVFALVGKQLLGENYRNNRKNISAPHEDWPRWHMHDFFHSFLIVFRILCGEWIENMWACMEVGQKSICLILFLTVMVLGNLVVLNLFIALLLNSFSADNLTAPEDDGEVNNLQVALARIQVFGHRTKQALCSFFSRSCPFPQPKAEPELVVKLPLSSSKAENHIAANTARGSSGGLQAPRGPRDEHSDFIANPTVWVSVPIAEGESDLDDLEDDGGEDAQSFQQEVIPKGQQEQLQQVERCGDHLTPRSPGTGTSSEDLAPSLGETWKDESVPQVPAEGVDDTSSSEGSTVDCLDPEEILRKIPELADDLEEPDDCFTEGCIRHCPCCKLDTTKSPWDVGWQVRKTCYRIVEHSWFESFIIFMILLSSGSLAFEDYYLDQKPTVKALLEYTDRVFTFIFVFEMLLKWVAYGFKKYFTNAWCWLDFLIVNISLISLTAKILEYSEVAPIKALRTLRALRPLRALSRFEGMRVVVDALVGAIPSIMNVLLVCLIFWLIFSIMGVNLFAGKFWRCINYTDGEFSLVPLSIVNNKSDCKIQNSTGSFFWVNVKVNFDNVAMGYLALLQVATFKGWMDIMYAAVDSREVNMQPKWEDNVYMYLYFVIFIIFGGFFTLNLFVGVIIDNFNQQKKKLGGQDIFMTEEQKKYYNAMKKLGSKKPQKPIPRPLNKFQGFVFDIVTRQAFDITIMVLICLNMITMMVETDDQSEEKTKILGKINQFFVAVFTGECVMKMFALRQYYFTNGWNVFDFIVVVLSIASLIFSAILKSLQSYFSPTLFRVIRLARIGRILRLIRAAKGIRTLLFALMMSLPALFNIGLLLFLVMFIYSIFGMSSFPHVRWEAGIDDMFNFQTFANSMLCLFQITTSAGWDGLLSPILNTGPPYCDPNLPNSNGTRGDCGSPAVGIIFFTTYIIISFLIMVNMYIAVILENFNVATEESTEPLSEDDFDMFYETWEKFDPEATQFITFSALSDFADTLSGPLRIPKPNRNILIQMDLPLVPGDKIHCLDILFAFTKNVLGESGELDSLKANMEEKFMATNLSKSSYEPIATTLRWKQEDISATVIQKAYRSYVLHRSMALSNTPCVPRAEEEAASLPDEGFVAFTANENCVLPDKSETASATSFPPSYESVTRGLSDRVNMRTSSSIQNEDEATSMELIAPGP
T1 sequence (Q07699 19-218 partner): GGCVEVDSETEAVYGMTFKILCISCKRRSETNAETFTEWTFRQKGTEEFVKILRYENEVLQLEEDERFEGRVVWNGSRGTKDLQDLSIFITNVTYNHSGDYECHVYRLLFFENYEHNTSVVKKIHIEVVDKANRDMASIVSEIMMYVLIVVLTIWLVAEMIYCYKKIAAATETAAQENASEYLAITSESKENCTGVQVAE
Description: Compound Profiling Human NaV1.8/β1 Cell Line—Sophion QPatch II Assay (automated patch clamp, stably transfected HEK293 cells). In kind it is cell-based.
Settings: not given
As for the experimental part: Compounds were tested on recombinant human Nav1.8/β1 stably transfected HEK293 (Eurofins, CYL3025, St. Charles, MO) cells using the QPatch II system (Sophion Bioscience A/S, Ballerup—Denmark), an automated patch clamp device. Cells were cultured at 37° C./5% CO2 in DMEM/F-12 supplemented with 10% fetal bovine serum, 1× Non-Essential Amino Acids, and selection antibiotics (0.625 μg/mL Puromycin, 400 μg/mL Geneticin, and 100 μg/mL Hygromycin). One or two days prior to recording, cells were moved to a lower temperature 30° C./5% CO2 incubator to increase surface expression of the channels. On the day of the recordings, cells in culture dishes were washed twice with Ca^2+—Mg^2+ free DPBS and treated with Detachin (Genlantis, San Diego) for 3 minutes and then resuspended in Serum Free Medium (EX-CELL® ACF CHO Medium for Cell Culture (Sigma-Aldrich) supplemented with 0.04 mg/mL soybean trypsin Inhibitor and 25 mM HEPES (all components supplied by Sigma-Aldrich, St. Louis, MO) and allowed to recover for a minimum of 20 minutes in the onboard QStirrer. All experiments were performed at ambient temperature. Intracellular solution contained (mM): CsCl, 50; CsF, 90; MgCl2, 2; EGTA, 5; HEPES, 10; pH adjusted to 7.2 with CsOH. Extracellular solution contained (mM): NaCl, 137; KCl, 4; CaCl2), 3.8; MgCl2, 1; HEPES, 10; Glucose, 10; pH adjusted to 7.4 with NaOH. [LEFT OUT].
Compounds were tested in an interleaved manner across two cohorts of wells to develop an aggregate 8-point concentration response curve. Final concentrations include 0.1% DMSO and 0.03% pluronic Acid. In general, the concentration range spans a range from 0.01-300 nM. Compounds were diluted 1:10 with extracellular solution within their respective cohort. DMSO (0.1% by volume) served as a vehicle control to ascertain assay performance.
(§1) Whole cell patch clamp recordings were conducted according to Sophion standard procedure for QPatch II®. Cells were held at a holding potential of −120 mV. A depolarizing step to 10 mV for 30 ms was applied to elicit inward Na^+ currents. Inter-sweep interval was 15 sec. Following establishment of the whole-cell configuration in extracellular solution, cells were washed twice in extracellular solution containing 0.1% DMSO and 0.03% pluronic acid to stabilize the baseline current. Compounds were then applied by the QPatch II system into each well in an ascending manner within cohort and the current was recorded for five minutes for each concentration. Percent of current remaining was determined by taking the average of the last 5 sweeps within each concentration and normalizing to the latest pre-compound saline period. The potency (IC50) values of the compounds were only assessed against resting state block. Wells whose initial sodium current magnitude were below 2 nA or whole cell resistance fell below 100 MΩ were excluded from analysis.
as §1, with “MO” for “MΩ”, “analysis. […]” for “analysis.”
In the case of `Cc1nc(F)ccc1Oc1ncc(C(F)(F)F)c(C)c1C(=O)Nc1cccc([S@@](=N)(=O)CCCN(C)C)c1` [Example 72C], the IC50 was in the range of 5 to 50 nM.
Still for that read-out and setting: under `Cc1nc(F)ccc1Oc1cc(C(F)(F)F)c(Cl)cc1C(=O)Nc1ccnc(S(C)(=O)=O)c1` [Example 17A] stands 5 to 50 nM.
The molecule `Cc1nc(F)ccc1Oc1ccc(C(F)(F)F)c(Cl)c1C(=O)Nc1ccnc([S@](C)(=N)=O)c1` [Example 32A] had an IC50 of 5 to 50 nM.
On the same count and under the same terms, the value for `CC[S@@](=N)(=O)c1cccc(NC(=O)c2c(Oc3ccc(F)nc3C)ncc(C(F)(F)F)c2C)c1` [Example 82C] was 50 to 100 nM; that for `Cc1nc(F)ccc1Oc1ncc(C(F)(F)F)c(C)c1C(=O)Nc1cccc(S(=N)(=O)CCC(C)(C)O)c1` (stereo not shown) [Example 42C, 2-((6-fluoro-2-methylpyridin-3-yl)oxy)-N-(3-(3-hydroxy-3-methylbutylsulfonimidoyl)phenyl)-4-methyl-5-(trifluoromethyl)nicotinamide] was above 200 nM; that for `CNCCCS(=N)(=O)c1cccc(NC(=O)c2c(Oc3ccc(F)nc3C)ncc(C(F)(F)F)c2C)c1` (stereo not shown) [Example 74C] was 5 to 50 nM.
The same measure, in the same setting: the value for `CNCCCS(=N)(=O)c1cccc(NC(=O)c2c(Oc3ccc(F)cc3C)ncc(C(F)(F)F)c2C)c1` (stereo not shown) [Example 56C] was 5 to 50 nM; that for `COc1cc(C#N)ccc1Oc1cc(C(F)(F)F)c(Cl)cc1C(=O)Nc1ccnc([S@](C)(=N)=O)c1` [Example 12A, (R)-5-chloro-2-(4-cyano-2-methoxyphenoxy)-N-(2-(S-methylsulfonimidoyl)pyridin-4-yl)-4-(trifluoromethyl)benzamide] was 5 to 50 nM; that for `Cc1c(C(F)(F)F)cnc(Oc2ccc(F)nc2CO)c1C(=O)Nc1cccc([S@](C)(=N)=O)c1` [Example 89C] was above 200 nM.
Same read-out and setting: the value for `Cc1cc(F)ccc1Oc1ncc(C(F)(F)F)c(C)c1C(=O)Nc1cccc(S(=N)(=O)CCCN(C)C)c1` (stereo not shown) [Example 55C] was 5 to 50 nM; that for `Cc1nc(F)ccc1Oc1ncc(C(F)(F)F)c(C)c1C(=O)Nc1cccc([S@]2(=O)=NCCC2)c1` [Example 79C] was 5 to 50 nM; that for `Cc1nc(F)ccc1Oc1ncc(C(F)(F)F)c(C)c1C(=O)Nc1cncc([S@@](C)(=N)=O)c1` [Example 62C] was above 200 nM.
Take `Cc1nc(F)ccc1Oc1cc(C(F)(F)F)ccc1C(=O)Nc1cccc([S@@](C)(=N)=O)c1` [Example 31A]: the IC50 is 100 to 200 nM.
Same read-out and setting: the value for `Cc1nc(F)ccc1Oc1cc(C(F)(F)F)ccc1C(=O)Nc1ccc(F)c([S@](C)(=N)=O)c1` [Example 30A] was 100 to 200 nM; that for `Cc1nc(F)ccc1Oc1ncc(C(F)(F)F)c(C)c1C(=O)Nc1cccc([S@](=N)(=O)CCCN(C)C)c1` [Example 73C] was 5 to 50 nM; that for `Cc1nc(F)ccc1Oc1ncc(C(F)(F)F)c(C)c1C(=O)N[C@H]1C[C@H](C(N)=O)C1` [Example 84C] was above 200 nM.
Same read-out and setting: under `Cc1nc(F)ccc1Oc1ncc(C(F)(F)F)c(C)c1C(=O)Nc1cccc([S@@](=N)(=O)CCCO)c1` [Example 68C] stands 100 to 200 nM.
Still for that read-out and setting: the value for `CNCCCS(=N)(=O)c1cccc(NC(=O)c2c(Oc3ccc(C#N)cc3OC)ncc(C(F)(F)F)c2C)c1` (stereo not shown) [Example 60C] was below 5 nM.
For the molecule `CCC(N)(CC)CCS(=N)(=O)c1cccc(NC(=O)c2c(Oc3ccc(F)nc3C)ncc(C(F)(F)F)c2C)c1` (stereo not shown) [Example 41C, N-(3-(3-amino-3-ethylpentylsulfonimidoyl)phenyl)-2-((6-fluoro-2-methylpyridin-3-yl)oxy)-4-methyl-5-(trifluoromethyl)nicotinamide], the IC50 is 5 to 50 nM.
The same measure, in the same setting: the value for `CNCCS(=N)(=O)c1cccc(NC(=O)c2c(Oc3ccc(F)nc3C)ncc(C(F)(F)F)c2C)c1` (stereo not shown) [Example 78C] was 5 to 50 nM.
Still for that read-out and setting: the value for `Cc1cc(F)ncc1Oc1cc(C(F)(F)F)c(Cl)cc1C(=O)Nc1ccc(F)c([S@](C)(=N)=O)c1` [Example 24A] was 100 to 200 nM.
The same measure, in the same setting: the value for `Cc1nc(F)ccc1Oc1ncc(C(F)(F)F)c(C)c1C(=O)Nc1cccc(S(=N)(=O)CCC(C)(C)N)c1` (stereo not shown) [Example 52C] was 5 to 50 nM; that for `Cc1nc(F)ccc1Oc1ncc(C(F)(F)F)c(C)c1C(=O)Nc1cc(S(=N)(=O)CCCO)ccn1` (stereo not shown) [Example 49C] was above 200 nM.
Molecule `CNC(C)(C)CS(=N)(=O)c1cccc(NC(=O)c2c(Oc3ccc(F)nc3C)ncc(C(F)(F)F)c2C)c1` (stereo not shown) [Example 51C] displayed an IC50 of 5 to 50 nM.
`Cc1nc(F)ccc1Oc1ncc(C(F)(F)F)c(C)c1C(=O)Nc1cccc([S@@]2(=O)=NCCC2)c1` [Example 80C] displayed an IC50 of 100 to 200 nM.
Same read-out and setting: the value for `Cc1cc(F)ccc1Oc1ncc(C(F)(F)F)c(C)c1C(=O)Nc1cccc(S(=N)(=O)CCCO)c1` (stereo not shown) [Example 54C] was 50 to 100 nM; that for `COc1cc(C#N)ccc1Oc1ncc(C(F)(F)F)c(C)c1C(=O)Nc1cccc([S@](=N)(=O)CCCO)c1` [Example 57C] was 5 to 50 nM; that for `Cc1nc(F)ccc1Oc1ncc(C(F)(F)F)c(C)c1C(=O)Nc1cccc(S(=N)(=O)CC(C)(C)N)c1` (stereo not shown) [Example 53C] was 5 to 50 nM.
The same measure, in the same setting: the value for `Cc1nc(F)ccc1Oc1ncc(C(F)(F)F)c(C)c1C(=O)Nc1cccc(S(=O)(=O)CCCO)c1` [Example 70C] was 100 to 200 nM.
For `Cc1c(C(F)(F)F)cnc(Oc2ccc(F)nc2CO)c1C(=O)Nc1cccc([S@@](C)(=N)=O)c1` [Example 83C], the IC50 is above 200 nM.

The assay is the same for the next values; noted with them: P1, resting state block; Nav1.8/β1 HEK293 cells, holding potential −120 mV; first set of compounds; read-out: P1 (IC50, resting state block).
Regarding `COc1cc(C#N)ccc1Oc1cc(C(F)(F)F)c(Cl)cc1C(=O)Nc1ccnc([S@@](C)(=N)=O)c1` [Example 15A], the half-inhibitory concentration (IC50) was in the range of 5 to 50 nM.
Same read-out and setting: the value for `COc1cc(Br)ccc1Oc1cc(C(F)(F)F)c(Cl)cc1C(=O)Nc1ccnc([S@@](C)(=N)=O)c1` [Example 16A] was below 5 nM.
Still for that read-out and setting: under `Cc1cc(F)ncc1Oc1cc(C(F)(F)F)c(Cl)cc1C(=O)Nc1ccnc([S@](C)(=N)=O)c1` [Example 20A] stands 100 to 200 nM; under `COc1cc(Br)ccc1Oc1cc(C(F)(F)F)c(Cl)cc1C(=O)Nc1ccnc([S@](C)(=N)=O)c1` [Example 11A, (R)-2-(4-bromo-2-methoxyphenoxy)-5-chloro-N-(2-(S-methylsulfonimidoyl)pyridin-4-yl)-4-(trifluoromethyl)benzamide], below 5 nM; under `Cc1cc(F)ncc1Oc1cc(C(F)(F)F)c(Cl)cc1C(=O)Nc1cccc([S@](C)(=N)=O)c1` [Example 22A], 50 to 100 nM.
Turning to `Cc1cc(F)ncc1Oc1cc(C(F)(F)F)c(Cl)cc1C(=O)Nc1ccnc([S@@](C)(=N)=O)c1` [Example 19A], the concentration for half-maximal inhibition (IC50) is above 200 nM.
Take `Cc1cc(F)ncc1Oc1cc(C(F)(F)F)c(Cl)cc1C(=O)Nc1ccc(F)c([S@@](C)(=N)=O)c1` [Example 23A]: the half-inhibitory concentration (IC50) was above 200 nM.

Staying with this assay, now noted: P1, resting state block; Nav1.8/β1 HEK293 cells, holding potential −120 mV; fourth set of compounds; read-out: P1 (IC50, resting state block).
With `Cc1nc(F)ccc1Oc1ncc(C(F)(F)F)c(C)c1C(=O)Nc1cccc(S2(=O)=NC(=O)CC2)c1` (single isomer, unassigned) [Example 31D, 2-((6-fluoro-2-methylpyridin-3-yl)oxy)-4-methyl-N-(3-(1-oxido-3-oxo-4,5-dihydro-3H-1l6-isothiazol-1-yl)phenyl)-5-(trifluoromethyl)nicotinamide], the IC50 lay within 50 to 100 nM.

Staying with this assay, now noted: P1, resting state block; Nav1.8/β1 HEK293 cells, holding potential −120 mV; third set of compounds; read-out: P1 (IC50, resting state block).
For `Cc1nc(F)ccc1Oc1cc(C(F)(F)F)c(Cl)cc1C(=O)Nc1ccnc([S@@](C)(=N)=O)c1` [Example 77C], the IC50 was above 200 nM.
Still for that read-out and setting: under `CNCC[S@@](=N)(=O)c1cccc(NC(=O)c2c(Oc3ccc(F)nc3C)ncc(C(F)(F)F)c2C)c1` [Example 64C] stands 5 to 50 nM.
